By Ki is commonly meant a measure of affinity in units of concentration, obtained from inhibition or displacement.

We go through 28 compounds from US10988459B2 (priority 2015, dated 2021).

The experiment has as its target human RIP1 kinase domain (2-375) (Homo sapiens (Human), UniProt Q13546). The experiment in a line: biochemical. To be noted: human RIP1 kinase domain (2-375), 50 uM ATP, 2 hours incubation, Transcreener ADP assay; read-out: RIP1 Ki. It counts as biochemical. In outline: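 Ki^app comes from Morrison tight-binding fits of fractional activity versus compound concentration. Activity was read as ADP production, via tracer displacement lowering fluorescence polarization (633 nm laser). Conditions: 2 h, 50 nM insect-cell-expressed enzyme, 50 uM ATP, 30 mM MgCl2, 1 mM DTT, 0.5% DMSO, pH 7.5 Hepes.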

human RIP1 kinase domain (2-375), sequence (Q13546 2-375): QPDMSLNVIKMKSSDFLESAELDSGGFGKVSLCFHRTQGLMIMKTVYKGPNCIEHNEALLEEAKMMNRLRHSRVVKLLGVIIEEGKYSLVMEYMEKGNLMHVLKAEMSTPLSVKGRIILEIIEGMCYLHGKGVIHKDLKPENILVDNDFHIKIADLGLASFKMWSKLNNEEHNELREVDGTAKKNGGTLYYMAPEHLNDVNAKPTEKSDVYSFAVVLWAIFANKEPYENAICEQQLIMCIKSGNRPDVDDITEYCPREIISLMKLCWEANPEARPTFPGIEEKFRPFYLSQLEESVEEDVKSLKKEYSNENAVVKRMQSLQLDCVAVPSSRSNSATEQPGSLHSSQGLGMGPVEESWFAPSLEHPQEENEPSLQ

Regarding `CN1C(=O)[C@@H](NC(=O)c2nnn3c2C[C@H](C(F)(F)F)CC3)COc2ccccc21` [Example 149, (R)-N-((S)-5-methyl-4-oxo-2,3,4,5-tetrahydrobenzo[b][1,4]oxazepin-3-yl)-5-(trifluoromethyl)-4,5,6,7-tetrahydro-[1,2,3]triazolo[1,5-a]pyridine-3-carboxamide], the Ki came to 64.3 nM. The same measure for `CN1C(=O)[C@@H](NC(=O)c2nnn3c2C[C@@H](C(F)(F)F)CC3)COc2ccccc21` [Example 150, (S)-N-((S)-5-methyl-4-oxo-2,3,4,5-tetrahydrobenzo[b][1,4]oxazepin-3-yl)-5-(trifluoromethyl)-4,5,6,7-tetrahydro-[1,2,3]triazolo[1,5-a]pyridine-3-carboxamide]: 125 nM. The same measure for `CN1C(=O)[C@@H](NC(=O)c2ncn(Cc3ccccc3)n2)CCn2ccnc21` [Example 151, (S)-1-benzyl-N-(9-methyl-8-oxo-6,7,8,9-tetrahydro-5H-imidazo[1,2-a][1,3]diazepin-7-yl)-1H-1,2,4-triazole-3-carboxamide]: 26.6 nM; for `CN1C(=O)[C@@H](NC(=O)c2ncn(Cc3ccccc3)n2)CCCn2nccc21` [Example 155, (S)-1-benzyl-N-(4-methyl-5-oxo-4,5,6,7,8,9-hexahydropyrazolo[1,5-a][1,3]diazocin-6-yl)-1H-1,2,4-triazole-3-carboxamide]: 38.2 nM. `CN1C(=O)C(NC(=O)c2cc3c(cn2)cnn3[C@H]2CCOC2)COc2ccccc21` (stereo partly drawn) [Example 156, N-(5-methyl-4-oxo-2,3,4,5-tetrahydrobenzo[b][1,4]oxazepin-3-yl)-1-((S)-tetrahydrofuran-3-yl)-1H-pyrazolo[4,3-c]pyridine-6-carboxamide]: the Ki is 68.3 nM.

`Cc1cc2n(n1)CC[C@H](NC(=O)c1ncn([C@H](C)c3ccccc3)n1)C(=O)N2C` [Example 158, N-((S)-2,4-dimethyl-5-oxo-5,6,7,8-tetrahydro-4H-pyrazolo[1,5-a][1,3]diazepin-6-yl)-1-((R)-1-phenylethyl)-1H-1,2,4-triazole-3-carboxamide]: the inhibition constant Ki is 986 nM. As for `CN1C(=O)[C@@H](NC(=O)c2ncn(CC3CCCC3)n2)CCn2nc(C3CC3)cc21` [Example 160, (S)-1-(cyclopentylmethyl)-N-(2-cyclopropyl-4-methyl-5-oxo-5,6,7,8-tetrahydro-4H-pyrazolo[1,5-a][1,3]diazepin-6-yl)-1H-1,2,4-triazole-3-carboxamide], the Ki is 24.5 nM. As for `CN1C(=O)[C@@H](NC(=O)c2cc3c(cn2)CO[C@]3(C)CC(F)(F)F)COc2ccccc21` [Example 161, (R)-1-methyl-N-((S)-5-methyl-4-oxo-2,3,4,5-tetrahydrobenzo[b][1,4]oxazepin-3-yl)-1-(2,2,2-trifluoroethyl)-1,3-dihydrofuro[3,4-c]pyridine-6-carboxamide], the Ki was 8.9 nM. The same measure for `Cc1cc2n(n1)CC[C@H](NC(=O)c1ncn(CC3CCCC3)n1)C(=O)N2C` [Example 162, (S)-1-(cyclopentylmethyl)-N-(2,4-dimethyl-5-oxo-5,6,7,8-tetrahydro-4H-pyrazolo[1,5-a][1,3]diazepin-6-yl)-1H-1,2,4-triazole-3-carboxamide]: 36.3 nM; for `Cc1cc2n(n1)CC[C@H](NC(=O)c1ncn(CC3CCCCC3)n1)C(=O)N2C` [Example 163, (S)-1-(cyclohexylmethyl)-N-(2,4-dimethyl-5-oxo-5,6,7,8-tetrahydro-4H-pyrazolo[1,5-a][1,3]diazepin-6-yl)-1H-1,2,4-triazole-3-carboxamide]: 22.3 nM.

Take `Cc1cc2n(n1)CC[C@H](NC(=O)c1ncn(Cc3ccc(F)cc3)n1)C(=O)N2C` [Example 164, (S)-N-(2,4-dimethyl-5-oxo-5,6,7,8-tetrahydro-4H-pyrazolo[1,5-a][1,3]diazepin-6-yl)-1-(4-fluorobenzyl)-1H-1,2,4-triazole-3-carboxamide]: the Ki came out at 24.5 nM. In the case of `Cc1cc2n(n1)CC[C@H](NC(=O)c1ncn([C@@H](C)c3ccccc3)n1)C(=O)N2C` [Example 165, N-((S)-2,4-dimethyl-5-oxo-5,6,7,8-tetrahydro-4H-pyrazolo[1,5-a][1,3]diazepin-6-yl)-1-((S)-1-phenylethyl)-1H-1,2,4-triazole-3-carboxamide], the inhibition constant Ki turned out to be 47.4 nM. The same measure for `Cc1cnn2c1N(C)C(=O)[C@@H](NC(=O)c1ncn(Cc3ccccc3)n1)CC2` [Example 166, (S)-1-benzyl-N-(3,4-dimethyl-5-oxo-5,6,7,8-tetrahydro-4H-pyrazolo[1,5-a][1,3]diazepin-6-yl)-1H-1,2,4-triazole-3-carboxamide]: 20 nM. The same measure for `CN1C(=O)[C@@H](NC(=O)c2cc3c(cn2)CO[C@@]3(C)CC(F)(F)F)COc2ccccc21` [Example 168, (S)-1-methyl-N-((S)-5-methyl-4-oxo-2,3,4,5-tetrahydrobenzo[b][1,4]oxazepin-3-yl)-1-(2,2,2-trifluoroethyl)-1,3-dihydrofuro[3,4-c]pyridine-6-carboxamide]: 269 nM. Regarding `CN1C(=O)[C@@H](NC(=O)c2cc3c(cn2)CO[C@]32CCOC2)COc2ccccc21` [Example 169, (R)-N-((S)-5-methyl-4-oxo-2,3,4,5-tetrahydrobenzo[b][1,4]oxazepin-3-yl)-4,5-dihydro-2H,3′H-spiro[furan-3,1′-furo[3,4-c]pyridine]-6′-carboxamide], the Ki was found to be 19.3 nM. The same measure for `Cc1cc2n(n1)CC[C@H](NC(=O)c1ncn(Cc3ccc(Cl)cc3)n1)C(=O)N2C` [Example 170, (S)-1-(4-chlorobenzyl)-N-(2,4-dimethyl-5-oxo-5,6,7,8-tetrahydro-4H-pyrazolo[1,5-a][1,3]diazepin-6-yl)-1H-1,2,4-triazole-3-carboxamide]: 13.2 nM; for `CN1C(=O)[C@@H](NC(=O)c2ncn(Cc3ccccc3)n2)CCn2nc(C3CC3)cc21` [Example 171, (S)-1-benzyl-N-(2-cyclopropyl-4-methyl-5-oxo-5,6,7,8-tetrahydro-4H-pyrazolo[1,5-a][1,3]diazepin-6-yl)-1H-1,2,4-triazole-3-carboxamide]: 16.2 nM; for `Cc1cc2n(n1)CC[C@H](NC(=O)c1ncn(Cc3ccccc3)n1)C(=O)N2C` [Example 172, (S)-1-benzyl-N-(2,4-dimethyl-5-oxo-5,6,7,8-tetrahydro-4H-pyrazolo[1,5-a][1,3]diazepin-6-yl)-1H-1,2,4-triazole-3-carboxamide]: 22.9 nM. The same measure for `CC(C)C1CCc2cnc(C(=O)N[C@H]3COc4ccccc4N(C)C3=O)n2C1` (stereo partly drawn) [Example 173, 6-isopropyl-N—((S)-5-methyl-4-oxo-2,3,4,5-tetrahydrobenzo[b][1,4]oxazepin-3-yl)-5,6,7,8-tetrahydroimidazo[1,5-a]pyridine-3-carboxamide]: 39.1 nM.

Consider `CN1C(=O)[C@@H](NC(=O)c2n[nH]c3c2CC2(CC3)CC2)COc2ccccc21` [Example 174, (S)—N-(5-methyl-4-oxo-2,3,4,5-tetrahydrobenzo[b][1,4]oxazepin-3-yl)-1′,4′,6′,7′-tetrahydrospiro[cyclopropane-1,5′-indazole]-3′-carboxamide], for which the Ki was determined as 166 nM. The same measure for `CN1C(=O)C(NC(=O)c2nnc(Cc3ccccc3)[nH]2)CCn2ccnc21` (stereo not shown) [Example 175, 5-benzyl-N-(9-methyl-8-oxo-6,7,8,9-tetrahydro-5H-imidazo[1,2-a][1,3]diazepin-7-yl)-4H-1,2,4-triazole-3-carboxamide]: 212 nM; for `CN1C(=O)C(NC(=O)c2n[nH]c3c2C[C@@H](C(F)(F)F)CC3)CCn2ccnc21` (stereo partly drawn) [Example 176, (5S)—N-(9-methyl-8-oxo-6,7,8,9-tetrahydro-5H-imidazo[1,2-a][1,3]diazepin-7-yl)-5-(trifluoromethyl)-4,5,6,7-tetrahydro-1H-indazole-3-carboxamide]: 1400 nM; for `CN1C(=O)C(NC(=O)c2ccn(Cc3ccc(F)c(F)c3)n2)CCn2ccnc21` (stereo not shown) [Example 177, 1-(3,4-difluorobenzyl)-N-(9-methyl-8-oxo-6,7,8,9-tetrahydro-5H-imidazo[1,2-a][1,3]diazepin-7-yl)-1H-pyrazole-3-carboxamide]: 1900 nM.

Turning to `CN1C(=O)C(NC(=O)c2cn(Cc3ccc(F)c(F)c3)cn2)CCn2ccnc21` (stereo not shown) [Example 178, 1-(3,4-difluorobenzyl)-N-(9-methyl-8-oxo-6,7,8,9-tetrahydro-5H-imidazo[1,2-a][1,3]diazepin-7-yl)-1H-imidazole-4-carboxamide], the Ki is 477 nM. The same measure for `CC(C)n1ncc2c1OC[C@H](NC(=O)c1nnc(Cc3ccccc3)[nH]1)C(=O)N2C` [Example 179, (S)-5-benzyl-N-(1-isopropyl-4-methyl-5-oxo-4,5,6,7-tetrahydro-1H-pyrazolo[3,4-b][1,4]oxazepin-6-yl)-4H-1,2,4-triazole-3-carboxamide]: 254 nM; for `CC(C)n1ncc2c1OC[C@H](NC(=O)c1cn(Cc3ccc(F)c(F)c3)cn1)C(=O)N2C` [Example 180, (S)-1-(3,4-difluorobenzyl)-N-(1-isopropyl-4-methyl-5-oxo-4,5,6,7-tetrahydro-1H-pyrazolo[3,4-b][1,4]oxazepin-6-yl)-1H-imidazole-4-carboxamide]: 8500 nM.

As to `CN1C(=O)[C@@H](NC(=O)c2nnc(Cc3ccccc3)[nH]2)COc2c1cnn2C` [Example 181, (S)-5-benzyl-N-(1,4-dimethyl-5-oxo-4,5,6,7-tetrahydro-1H-pyrazolo[3,4-b][1,4]oxazepin-6-yl)-4H-1,2,4-triazole-3-carboxamide], the Ki was found to be 93.6 nM.

As to `CN1C(=O)[C@@H](NC(=O)c2ccn(Cc3ccc(F)c(F)c3)n2)COc2c1cnn2C` [Example 182, (S)-1-(3,4-difluorobenzyl)-N-(1,4-dimethyl-5-oxo-4,5,6,7-tetrahydro-1H-pyrazolo[3,4-b][1,4]oxazepin-6-yl)-1H-pyrazole-3-carboxamide], the Ki was 2300 nM.
